Tests used:
[1] = tested on: MCF7 cells; assay: Proliferation of MCF7 cells (shCtrl vs shNAMPT) by crystal violet staining; type: cell-based, human; conditions: for restoration of tamoxifen sensitivity: ER+/NAMPT-low MCF7 cells, 1, 5 or 10 mM NAM or 1 or 5 mM NR
Protocol: (§1) NAMPT knockdown (shNAMPT) reduced NAMPT (A) mRNA and (B) protein expression in MCF7 and T47D cells compared to controls transduced with scrambled shRNA (shCtrl). (A) NAMPT mRNA levels were analyzed by real time PCR and are expressed relative to beta-D-glucuronidase (GUSB) (***P<0.001) (n=3). (B) NAMPT protein expression was analyzed by Western blot analysis. Quantification of NAMPT protein was related to β-tubulin expression. […] Cellular NAD was analyzed in whole cell extracts of 1×10^6 cells. Metabolite concentrations were determined using a NAD+/NADH fluorescence detection kit (Cell Technology, Inc) and normalized to protein content. (D) Proliferation of control (shCtrl) vs NAMPT-knockdown (shNAMPT) MCF7 and T47D cells, untreated or treated with 0.001, 0.05, 0.1, 1, or 5 μM 4-hydroxytamoxifen (tamoxifen active metabolite) for 14 days. Proliferation was measured based on crystal violet staining and is expressed as % of proliferation of untreated cells. Groups were compared by unpaired two-tailed Student's t-test in n=4 (***P<0.001, **P<0.01 *P<0.05).
(A) Effect of nicotinamide treatment (10 mM NAM) on proliferation of control (shCtrl) vs NAMPT-knockdown (shNAMPT) MCF7 and T47D cells exposed to 1 μM or 0.1 μM 4-hydroxytamoxifen (tamoxifen active metabolite) respectively for 14 days. Proliferation was measured based on crystal violet staining and is expressed as % of proliferation of untreated cells (no 4-hydroxytamoxifen, no NAM). Groups were compared by unpaired two-tailed Student's t-test in n=4 (***P<0.001, **P<0.01 *P<0.05). (B) NAMPT KD cells present reduced absolute levels of NAD′ and nicotinamide treatment induces NAD^+ and NADH levels in both control (CT) or NAMPT KD (shNAMPT) breast cancer cells. NAD^+ and NADH were analyzed independently in whole cell extracts of 1×10^6 cells. Metabolite concentrations were determined using a NAD^+/NADH fluorescence detection kit (Cell Technology, Inc). (C) Distribution of ERα in MCF7 shCT or shNAMPT cells, measured after 7 days of cell treatment with 10 mM nicotinamide in EMEM medium, supplemented with 10% FBS. ERα localization was detected by immunofluorescence using anti-ERα clone SP1 (Thermo Fisher). Nuclei were detected by DAPI staining. Representative images are shown.
Nicotinamide riboside (NR) was more efficient than nicotinamide in blocking low-NAMPT-induced tamoxifen resistance. Proliferation of control (shCT) vs NAMPT-knockdown (shNAMPT) MCF7 cells treated with 1 or 5 μM 4-hydroxytamoxifen (tamoxifen active metabolite) for 7 days with or without (A) 1, 5 or 10 mM nicotinamide (NAM) or (B) 1 or 5 mM nicotinamide riboside (NR). Proliferation was measured based on crystal violet staining and is expressed as % of proliferation of untreated cells (no 4-hydroxytamoxifen). Groups were compared by unpaired two-tailed Student's t-test in n=4 (***P<0.001, **P<0.01 *P<0.05).

[2] = tested on: MCF7 cells; assay: Growth of MCF7 cells in estrogen-free, phenol red-free medium, crystal violet staining; type: cell-based, human; conditions: for sensitization to tamoxifen's antiproliferative effects: 1 μM 4-hydroxytamoxifen; for proliferation with 4-hydroxytamoxifen: 10 nM E2 + 1 μM 4-hydroxytamoxifen
Protocol: (A) Growth of control (shCtrl) vs NAMPT knockdown (shNAMPT) MCF7 cells cultured for 7 days in EMEM medium supplemented with 10% FBS, or in phenol red-free EMEM supplemented with 10% charcoal-stripped estrogen-free FBS. Growth was measured by crystal violet staining after 7 days in culture. Groups were compared by unpaired two-tailed Student's t-test in n=3 (***P<0.001). (B) Growth of control (shCtrl) vs NAMPT knockdown (shNAMPT) MCF7 cells cultured in estrogen-free, phenol red-freeEMEM medium supplemented with 10% charcoal-stripped FBS. […] Growth was measured by crystal violet staining after 7 days in culture. Groups were compared by unpaired two-tailed Student's t-test in n=3 (*P<0.05,[…],***P<0.001). (C) Changes in NAD^+ levels impact the subcellular localization of ERα. […] Estrogen starvation and treatment were performed in phenol red-free EMEM supplemented with 10% charcoal-stripped FBS. ERα was detected by immunofluorescence using Pierce anti-ERα antibody (MA1-39539). Representative images are shown for all conditions.
To further analyze the regulatory role of NAMPT and the NAD^+ salvage pathway in estrogen-dependent growth and tamoxifen treatment, we first analyzed the capacity of MCF7 variant cells to grow in estrogen-free media. […] Importantly, low NAMPT expressing MCF7 cells (shNAMPT) had the capacity to proliferate even in the absence of estrogens (FIG. 6A). […] Furthermore, NAM treatment sensitized shCT and re-sensitized shNAMPT cells to tamoxifen's antiproliferative effects (FIG. 6B). In FIG. 4C, we analyzed the ERα localization in MCF7 cells when the cells were cultured in EMEM medium supplemented with 10% FBS, serum that contain hormones and growth factors that modulate ERα localization independently of the presence of estrogens (Muriel Le Romancer et al., Endocrine Reviews, October 2011, 32(5):597-622). In order to deeply analyze the role of NAMPT and NAM treatment on modulating ligand-dependent ERα nuclear localization, we starved the cells from any growth factor and hormones including estrogens for 72 hours by growing them in phenol red-free EMEM/10% charcoal-stripped FBS. Then, breast cancer cells were cultured for 24 hours with or without 10 nM E2, or with 10 nM E2 plus 10 mM NAM. […] In the absence of estrogens, ERα was distributed in the cytoplasm of control cells while in shNAMPT expressing cells ERα was concentrated in the nuclei.

[3] = tested on: cellular NAD^+; assay: Cellular NAD+ in whole cell extracts, NAD+/NADH fluorescence detection kit; type: cell-based, human; conditions: MCF7 cells expressing basal or low NAMPT levels
Protocol: as §1, with “(D) Proliferation of control (shCtrl) vs NAMPT-knockdown (shNAMPT) MCF7 and T47D cells, untreated or treated with 0.001, 0.05, 0.1, 1, or 5 μM 4-hydroxytamoxifen (tamoxifen active metabolite) for 14 days.” left out, “Groups were compared by unpaired two-tailed Student's t-test in n=4 (***P<0.001, **P<0.01 *P<0.05).” left out
(§2) (A) Effect of nicotinamide treatment (10 mM NAM) on proliferation of control (shCtrl) vs NAMPT-knockdown (shNAMPT) MCF7 and T47D cells exposed to 1 μM or 0.1 μM 4-hydroxytamoxifen (tamoxifen active metabolite) respectively for 14 days. Proliferation was measured based on crystal violet staining and is expressed as % of proliferation of untreated cells (no 4-hydroxytamoxifen, no NAM). […] NAD^+ and NADH were analyzed independently in whole cell extracts of 1×10^6 cells. Metabolite concentrations were determined using a NAD^+/NADH fluorescence detection kit (Cell Technology, Inc). […] Nuclei were detected by DAPI staining. […]

[4] = tested on: ERα
[5] = tested on: T47D cells; assay: Proliferation of T47D cells (shCtrl vs shNAMPT) by crystal violet staining; type: cell-based, human; conditions: 14 days
Protocol: as §1, with “(D) Proliferation of control (shCtrl) vs NAMPT-knockdown (shNAMPT) MCF7 and T47D cells, untreated or treated with 0.001, 0.05, 0.1, 1, or 5 μM 4-hydroxytamoxifen (tamoxifen active metabolite) for 14 days.” left out, “Groups were compared by unpaired two-tailed Student's t-test in n=4 (***P<0.001, **P<0.01 *P<0.05).” left out
as §2

[6] = tested on: MDA-MB-231 cells; assay: Proliferation of triple negative MDA-MB-231 cells by crystal violet staining; type: cell-based, human; conditions: 10 mM NAM, 0.5, 1 or 5 μM 4-hydroxytamoxifen, 14 days
Protocol: Proliferation of triple negative breast MDA-MB-231 cells, untreated or treated with 0.5, 1 or 5 μM 4-hydroxytamoxifen (tamoxifen active metabolite) for 14 days, with or without treatment with 10 mM nicotinamide (NAM). Proliferation was measured based on crystal violet staining and is expressed as % of proliferation of untreated cells (no 4-hydroxytamoxifen, no NAM). Groups were compared by unpaired two-tailed Student's t-test in n=3 (**P<0.01).

[7] = 1 or 5 μM 4-hydroxytamoxifen, 7 days
[8] = MCF7 shNAMPT, 10 mM NAM, 7 days

## NC(=O)c1cccnc1 [NAM, nicotinamide]
[1]; [7]
  restoration of tamoxifen sensitivity: restore tamoxifen sensitivity
[1]; MCF7 shCtrl and shNAMPT, 10 mM NAM, 1 μM 4-hydroxytamoxifen, 14 days
  effect of NAM on anti-proliferative efficacy of 4-hydroxytamoxifen: enhanced the anti-proliferative efficacy of 4-hydroxytamoxifen
[2]; MCF7 shCT, 10 mM NAM, 7 days
  sensitization to tamoxifen's antiproliferative effects: sensitized
  estrogen-induced proliferation: dramatically inhibited
[2]; [8]
  sensitization to tamoxifen's antiproliferative effects: re-sensitized
  estrogen-independent growth: dramatically inhibited
[3]
  NAD+ levels after NAM treatment: induced significantly NAD^+ levels
[4]; MCF7 control and shNAMPT, estrogen starved 72 h, 10 nM E2 plus 10 mM NAM, 24 h
  ERα nuclear localization with NAM: inhibited ERα nuclear localization
[4]; MCF7 shCT or shNAMPT, 10 mM nicotinamide, 7 days, EMEM with 10% FBS
  ERα expression and nuclear localization: do not affect estrogen receptor alpha (ERα) expression and nuclear localization
[5]; T47D shCtrl and shNAMPT, 10 mM NAM, 0.1 μM 4-hydroxytamoxifen
  effect of NAM on anti-proliferative efficacy of 4-hydroxytamoxifen: enhanced the anti-proliferative efficacy of 4-hydroxytamoxifen
[6]
  sensitization to tamoxifen-induced antiproliferative effects: sensitized MDA-MB-231 to tamoxifen-induced antiproliferative effects

## NC(=O)c1ccc[n+]([C@@H]2O[C@H](CO)[C@@H](O)[C@H]2O)c1 [nicotinamide riboside]
[1]; ER+/NAMPT low (shNAMPT) MCF7 cells, 1 or 5 mM NR, 1 or 5 μM 4-hydroxytamoxifen, 7 days
  activity in restoring Tamoxifen sensitivity compared with NAM: more potent activity than NAM
[1]; [7]
  restoration of tamoxifen sensitivity: restore tamoxifen sensitivity

## 4-hydroxytamoxifen
[1]; MCF7 shNAMPT vs shCtrl, 0.001-5 μM, 14 days
  anti-proliferative efficacy of 4-hydroxytamoxifen on reduction of NAMPT expression: dramatically reduced the anti-proliferative efficacy
[2]; MCF7 shCT, 7 days
  proliferation with 4-hydroxytamoxifen: able to reduce proliferation
[2]; MCF7 shNAMPT, 7 days
  proliferation with 4-hydroxytamoxifen: not in shNAMPT
[5]; T47D shNAMPT vs shCtrl, 0.001-5 μM
  anti-proliferative efficacy of 4-hydroxytamoxifen on reduction of NAMPT expression: dramatically reduced the anti-proliferative efficacy

## C[C@]12CC[C@@H]3c4ccc(O)cc4CC[C@H]3[C@@H]1CC[C@@H]2O [17-β-estradiol]
[2]; MCF7 shCT, 10 nM E2, 7 days, estrogen-free medium
  proliferation with 17-β-estradiol: induced proliferation

Reference: patent US20170202822A1, “METHODS AND COMPOSITIONS FOR ENHANCING CANCER THERAPY” (THE SCRIPPS RESEARCH INSTITUTE, priority 2014, published 2017)
